Data on eleven compounds can be found in US20090105301A1, “9A-SUBSTITUTED AZALIDES FOR THE TREATMENT OF MALARIA” (priority 2006, published 2009).

≈ marks a conversion by molar mass, not a printed value. Some results are limits rather than exact numbers.

What is called IC50 is the concentration needed to halve the response being measured.

Test [1] relates to Plasmodium falciparum strain 3D7A. In words: In vitro screening protocol II, [3H] hypoxanthine incorporation IC50 assay, 3D7A. To be noted: P. falciparum 3D7A; for IC50: Plasmodium falciparum. Type of test: cell-based. As to the method: (§1) The protocol described here is a modification of the in vitro screening protocol I and the details of the methodology are given below.
(§2) Plasmodium falciparum strains 3D7A and W2.
(§3) The culture medium comprised RPMI 1640 with 25 mM HEPES, sodium bicarbonate and glutamine (GIBCO™ cat. ref.: 52400), supplemented with 10% of pooled human sera AB (Bioreclamation HMSRM-AB)) and HT supplement (0.15 mM hypoxanthine and 24 μM thymidine), (GIBCO™ cat. ref.: 41065). Human sera were decomplemented 30 min. at 56° C., aliquoted and stored frozen at −20° C. until use in this culture medium.
(§4) This culture medium (“complete medium”) was usually prepared fresh just before use and pre-warmed to 37° C.
(§5) Red blood cells AB− stock suspensions were prepared from whole blood bags coming from incomplete blood donation, provided by the Spanish Red Cross (<25 days after sampling). This “whole blood” was aliquoted and stored at 4° C.
(§6) To prepare red blood cells for the assay, the whole blood was centrifuged and washed 3 times with RPMI without serum. The upper phase, containing white blood cells was removed. The washed red blood cells were kept as a 50% suspension in complete medium. The prepared cells were stored at 4° C. and were employed in the assay at any time up to 4 days after preparation.
(§7) Test compounds were dissolved at 2 mg/ml in 100% DMSO on the day of the assay. If necessary, complete dissolution was achieved by gentle heating (the mixture was heated at a temperature <37° C.) and sonication (sonication bath).
(§8) For IC50 determinations, 10 serial 2-fold dilutions were prepared in complete medium in the presence of a constant amount of DMSO. Any obvious signs of insolubility of the stock solutions in 100% DMSO or precipitation when these solutions were diluted in assay media, were recorded.
(§9) Plasmodium falciparum strains were maintained in complete medium at 5% of hematocrit in continuous culture using a method adapted from Trager W. and Jensen J. B. (Human malaria parasites in continuous culture Science 193 (4254) (1976) 673-675) and Trager W. (Cultivation of malaria parasites Methods Cell Biol. 45 (1994) 7-26).
(§10) The parasitemia was calculated by counting the percentage of parasitized erythrocytes by optical microscopy. Thin films of blood were made every day from each culture flask, fixed with methanol and stained for 10 min. in Giemsa (Merck, cat ref.: 1.09204) at 10% in buffered water pH 7.2. The glass slides were observed and counted with an optical microscope (Nikon, Eclipse E200) equipped with a 100× immersion oil objective.
(§11) The culture was maintained at 5% of hematocrit, with a daily change of medium and was diluted when parasitemia had reached about 5%.
(§12) [^3H] Hypoxanthine incorporation assay was conducted using a method adapted from Desjardins R. E. et al. (Quantitative assessment of antimalarial activity in vitro by a semiautomated microdilution technique. Antimicrob. Agents Chemother., 16 (6) (1979) 710-718). The assays were performed in 96 wells flat bottom microplates.
(§13) 1. Serial dilutions of each test compound (25 μl of a 5× solution/well) were deposited in one row of assay microtiter plate. Compounds of this invention were tested in this assay. Chloroquine and Azithromycin were used as control compounds for each assay.
(§14) 2. […] 100 μl of the resulting suspension was distributed into each well of columns 1-11 of assay microtiter plate leading to a final volume of 125 μl per well, at 1.2% of hematocrit and 0.4% of parasitemia/well.
(§15) 3. In each plate, 2 columns were reserved for control wells: • Column 11 (comprising wells A11-H11): Positive control wells: Untreated PRBCs to compare with cultures treated with test compounds. • Column 12 (comprising wells A12-H12): • Background value wells: Uninfected RBCs—blank control to obtain the background reading from RBCs without parasites (at 1.2% of hematocrite value).
(§16) 4. The plates were incubated at 37° C. under low oxygen atmosphere. […]

Test [2] relates to P. falciparum TM91C235. The test is described as follows: In vitro screening protocol I, [3H]-hypoxanthine incorporation, TM91C235. Type of test: cell-based, Plasmodium falciparum. Conditions: In vitro screening protocol I, P. falciparum TM91C235; for IC50: Plasmodium falciparum, read-out: IC50 TM91C235.
The subject of test [3] is Plasmodium falciparum strain W2. In words: In vitro screening protocol II, [3H] hypoxanthine incorporation IC50 assay, W2. It is filed as cell-based. To be noted: P. falciparum W2; for IC50: Plasmodium falciparum. As to the method: as §1, §2, §3, §4, §5, §6, §7, §8, §9, §10, §11, §12, §13, §14, §15, §16
The subject of test [4] is P. falciparum D6 (CDC/Sierra Leone I, D-6). In words: In vitro screening protocol I, [3H]-hypoxanthine incorporation, D6. It is filed as cell-based, Plasmodium falciparum. Conditions: In vitro screening protocol I, P. falciparum D6; for IC50: Plasmodium falciparum, read-out: IC50 D6. The procedure, abridged:
(§17)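 Asexual blood-stage P. falciparum was cultured in human A+ erythrocytes at 37 °C under 5% CO2/5% O2, and growth was measured by [3H]-hypoxanthine incorporation over 72 h total. TM91C235 was prescreened at 25,000, 2,500 and 25 ng/ml in folate-free medium. D-6 and W-2 IC50s came from 11-point two-fold dilutions by logistic fit.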

The test system of test [5] is P. falciparum W2 (CDC/Indochina III, W-2). The test is described as follows: In vitro screening protocol I, [3H]-hypoxanthine incorporation, W2. Type of test: cell-based, Plasmodium falciparum. Conditions: In vitro screening protocol I, P. falciparum W2; for IC50: Plasmodium falciparum, read-out: IC50 W2. The method in brief: as §17
In test [6] the test system is Plasmodium vivax. Conditions: non-immune patients, as compared to controls; cited from earlier work.
The test system of test [7] is Plasmodium falciparum. To be noted: non-immune patients, as compared to controls; cited from earlier work.
Test [8] has as its system Plasmodium cynomolgi. To be noted: rhesus monkey; cited from earlier work.
Test [9] concerns Plasmodium berghei. Conditions: cited from earlier work.
Test [10] has as its system Plasmodium yoelii nigeriensis. Conditions: cited from earlier work.

Take `CC[C@H]1OC(=O)[C@H](C)[C@@H](O[C@H]2C[C@@](C)(OC)[C@@H](O)[C@H](C)O2)[C@H](C)[C@@H](O[C@@H]2O[C@H](C)C[C@H](N(C)C)[C@H]2O)[C@](C)(O)C[C@@H](C)CN(CCCNCc2cccc3ccccc23)[C@H](C)[C@@H](O)[C@]1(C)O` [Example 8, 9a-{3-[(Naphtalen-1-yl-methyl)amino]propyl}-9-deoxo-9-dihydro-9a-aza-9a-homoerythromycin A]: the IC50 in [1] is 0.1 to 0.2 µg/mL (≈ 0.107 to 0.215 µM); in test [2], < 0.1 µg/mL; in test [3] it was < 0.1 µg/mL; in test [4], < 0.1 µg/mL; in test [5], < 0.1 µg/mL.

On to `CC[C@H]1OC(=O)[C@H](C)[C@@H](O)[C@H](C)[C@@H](O[C@@H]2O[C@H](C)C[C@H](N(C)C)[C@H]2O)[C@](C)(O)C[C@@H](C)CN(CCCNCc2ccnc3ccccc23)[C@H](C)[C@@H](O)[C@]1(C)O` [Example 15, 9a-{3-[(Quinolin-4-yl-methyl)amino]propyl}-3-O-decladinosyl-9-deoxo-9-dihydro-9a-aza-9a-homoerythromycin A], for which the “IC50 3D7A” value in test [1] is given as “C (200 < X ≦ 1000)”. For the same compound, the “IC50 TM91C235” value in test [2] is recorded as “C (200 < X ≦ 1000)”. The “IC50 W2” value in test [3] is on record as “C (200 < X ≦ 1000)”; in [5] it was “B (100 < X ≦ 200)”. Also, the “IC50 D6” value in test [4] is “B (100 < X ≦ 200)”.

For the compound `CC[C@H]1OC(=O)[C@H](C)[C@@H](O[C@H]2C[C@@](C)(OC)[C@@H](O)[C@H](C)O2)[C@H](C)[C@@H](O[C@@H]2O[C@H](C)C[C@H](N(C)C)[C@H]2O)[C@](C)(O)C[C@@H](C)CN(CCCNC(=O)/C=C/c2cnc3ccccc3c2)[C@H](C)[C@@H](O)[C@]1(C)O` [Example 76, 9a-(3-{[(2E)-3-(Quinolin-3-yl)-2-propenoyl]amino}propyl)-9-deoxo-9-dihydro-9a-aza-9a-homoerythromycin A], the IC50 in [1] and in [3] was 0.2 to 1 µg/mL (≈ 0.205 to 1.03 µM) in each case.

Take `CC[C@H]1OC(=O)[C@H](C)[C@@H](O[C@H]2C[C@@](C)(OC)[C@@H](O)[C@H](C)O2)[C@H](C)[C@@H](O[C@@H]2O[C@H](C)C[C@H](N(C)C)[C@H]2O)[C@](C)(O)C[C@@H](C)CN(C)[C@H](C)[C@@H](O)[C@]1(C)O` [azithromycin, reference compound]: the prophylactic efficacy in test [6] was 98.9%; in test [7] it was 71.6%. The half-maximal inhibitory concentration (IC50) was in the range of 3.5 to 5 µg/mL (≈ 4.67 to 6.68 µM) in [2], 2.5 to 2.8 µg/mL (≈ 3.34 to 3.74 µM) in test [3], 1 to 2.5 µg/mL (≈ 1.34 to 3.34 µM) in test [4] and 2.8 to 3.5 µg/mL (≈ 3.74 to 4.67 µM) in test [5]. For the same compound, the “efficacy in monkey model” value in test [8] was “active”.

As to `CCC1OC(=O)C(C)C(OC2CC(C)(OC)C(O)C(C)O2)C(C)C(OC2OC(C)CC(N(C)C)C2O)C(C)(O)CC(C)CN(CCCNC(=O)Cc2ccc(F)cc2)C(C)C(O)C1(C)O.O=CO` (stereo not shown) [Example 68, 9a-(3-{[(4-Fluorophenyl)acetyl]amino}propyl)-9-deoxo-9-dihydro-9a-aza-9a-homoerythromycin A Formiate Salt], the “IC50 3D7A” value in [1] is reported as “F (2800 < X ≦ 3500)”. Moreover, the “IC50 W2” value in [3] is recorded as “C (200 < X ≦ 1000)”.

As for `CCC1OC(=O)C(C)C(OC2CC(C)(OC)C(O)C(C)O2)C(C)C(OC2OC(C)CC(N(C)C)C2O)C(C)(O)CC(C)CN(CCCNC(=O)c2cc(F)c(F)c(OC)c2F)C(C)C(O)C1(C)O.O=CO` (stereo not shown) [Example 59, 9a-[3-({[2,4,5-Trifluoro-3-(methyloxy)phenyl]carbonyl}amino)propyl]-9-deoxo-9-dihydro-9a-aza-9a-homoerythromycin A Formiate Salt], in test [1], the “IC50 3D7A” value was “D (1000 < X ≦ 2500)”. In addition, the “IC50 W2” value in test [3] was “B (100 < X ≦ 200)”.

`CC(=O)O.CC(=O)O.CC[C@H]1OC(=O)[C@H](C)[C@@H](O[C@H]2C[C@@](C)(OC)[C@@H](O)[C@H](C)O2)[C@H](C)[C@@H](O[C@@H]2O[C@H](C)C[C@H](N(C)C)[C@H]2O)[C@](C)(O)C[C@@H](C)CN(CCCNC(=O)CCc2ccccc2)[C@H](C)[C@@H](O)[C@]1(C)O` [Example 47, 9a-{3-[(3-Phenylpropanoyl)amino]propyl}-9a-aza-9-deoxo-9-dihydro-9a-homoerythromycin A Diacetate Salt]: the “IC50 3D7A” value in test [1] is on record as “D (1000 < X ≦ 2500)”. Besides, in test [3], the “IC50 W2” value is “D (1000 < X ≦ 2500)”.

As for `CCC1OC(=O)C(C)C(OC2CC(C)(OC)C(O)C(C)O2)C(C)C(OC2OC(C)CC(N(C)C)C2O)C(C)(O)CC(C)CN(CCCNC(=O)Cc2ccccc2F)C(C)C(O)C1(C)O.O=CO` (stereo not shown) [Example 69, 9a-(3-{[(2-Fluorophenyl)acetyl]amino}propyl)-9-deoxo-9-dihydro-9a-aza-9a-homoerythromycin A Formiate Salt], the “IC50 3D7A” value in [1] is listed as “G (3500 < X ≦ 5000)”. In [3], the “IC50 W2” value was “C (200 < X ≦ 1000)”.

midecamycinin: the “activity in mouse model” value in test [9] and in [10] was “active” throughout. For the same compound, the “efficacy in monkey model” value in test [8] is “no efficacy”.

On to `CCC1OC(=O)C(C)C(OC2CC(C)(OC)C(O)C(C)O2)C(C)C(OC2OC(C)CC(N(C)C)C2O)C(C)(O)CC(C)CN(CCCNC(=O)c2cc(Cl)ccc2[N+](=O)[O-])C(C)C(O)C1(C)O.O=CO` (stereo not shown) [Example 66, 9a-(3-{[(5-Chloro-2-nitrophenyl)carbonyl]amino}propyl)-9-deoxo-9-dihydro-9a-aza-9a-homoerythromycin A Formiate Salt], for which, in test [1], the “IC50 3D7A” value is given as “D (1000 < X ≦ 2500)”. In test [3], the “IC50 W2” value is listed as “C (200 < X ≦ 1000)”.

Take `CCC1OC(=O)C(C)C(OC2CC(C)(OC)C(O)C(C)O2)C(C)C(OC2OC(C)CC(N(C)C)C2O)C(C)(O)CC(C)CN(CCCNC(=O)CCC(=O)c2ccccc2)C(C)C(O)C1(C)O.O=CO` (stereo not shown) [Example 65, 9a-{3-[(4-Oxo-4-phenylbutanoyl)amino]propyl}-9-deoxo-9-dihydro-9a-aza-9a-homoerythromycin A Formiate Salt]: in [1], the “IC50 3D7A” value is on record as “G (3500 < X ≦ 5000)”. The “IC50 W2” value in test [3] is on record as “D (1000 < X ≦ 2500)”.
